# Entries after “also recorded” stand apart in the source; their conditions may differ. Like-named read-outs stand apart in the source and are kept apart here.
# Assays:
# recombinant human MAO-A = biological target: T1, recombinant human MAO-A (Homo sapiens, UniProt P21397); experiment: MAO-A inhibition assay (kynuramine substrate); format: biochemical; conditions: for remaining activity at 10 µM: read-out: Residual activities (%) MAO-A (10 µM)
# T1 sequence (P21397 1-527): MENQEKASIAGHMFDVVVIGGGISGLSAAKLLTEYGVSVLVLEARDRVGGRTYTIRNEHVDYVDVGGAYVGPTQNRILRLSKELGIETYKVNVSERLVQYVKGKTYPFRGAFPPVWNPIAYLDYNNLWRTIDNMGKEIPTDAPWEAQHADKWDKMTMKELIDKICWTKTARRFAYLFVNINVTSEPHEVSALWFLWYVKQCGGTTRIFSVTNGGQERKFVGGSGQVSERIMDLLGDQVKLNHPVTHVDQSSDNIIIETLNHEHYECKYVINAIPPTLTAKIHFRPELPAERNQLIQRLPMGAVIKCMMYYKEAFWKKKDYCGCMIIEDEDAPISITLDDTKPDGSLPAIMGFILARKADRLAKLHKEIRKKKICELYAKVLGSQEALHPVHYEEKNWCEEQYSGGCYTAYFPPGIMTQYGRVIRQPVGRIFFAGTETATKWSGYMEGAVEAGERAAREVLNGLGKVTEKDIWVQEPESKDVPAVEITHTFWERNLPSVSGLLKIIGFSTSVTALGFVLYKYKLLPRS
# Experimental: (§1) MAO-A, MAO-B, AChE and BChE activities were measured after exposure to inhibitors at a concentration of 10 µM. […] IC50 values were determined by measuring the residual enzyme activities. […] Ki values and inhibitor types were determined by kinetic testing, as previously described. […] Lineweaver–Burk plots and their secondary plots were used to determine Ki values and inhibitor types.
# Hela cells = experiment: Total ROS assay in H2O2-treated cells; format: cell-based, human
# Source text: ROS are considered to be the radicals primarily responsible for the neuronal death observed in various neurodegenerative disorders.
# Figure 7.
# BChE = BChE (Equus caballus, UniProt P81908); experiment: biochemical; conditions: read-out: Residual activities (%) BChE (10 µM)
# Experimental: Colour development was performed using 0.5 mM 5,5′-dithiobis (2-nitrobenzoic acid) (DTNB), which reacts with thiocholine (a product of ATCI by AChE or of BTCI by BChE) to produce 5-thio 2-nitrobenzoic acid.
# as §1
# MAO-B [1] = biological target: T2, MAO-B (Homo sapiens, UniProt P27338); experiment: MAO-B inhibition assay (benzylamine substrate); format: biochemical; conditions: for remaining activity at 1 µM: read-out: Residual activities (%) MAO-B (1.0 µM); for SI = IC50 of MAO-A/IC50 of MAO-B: selectivity for MAO-B over MAO-A
# T2 sequence (P27338 1-520): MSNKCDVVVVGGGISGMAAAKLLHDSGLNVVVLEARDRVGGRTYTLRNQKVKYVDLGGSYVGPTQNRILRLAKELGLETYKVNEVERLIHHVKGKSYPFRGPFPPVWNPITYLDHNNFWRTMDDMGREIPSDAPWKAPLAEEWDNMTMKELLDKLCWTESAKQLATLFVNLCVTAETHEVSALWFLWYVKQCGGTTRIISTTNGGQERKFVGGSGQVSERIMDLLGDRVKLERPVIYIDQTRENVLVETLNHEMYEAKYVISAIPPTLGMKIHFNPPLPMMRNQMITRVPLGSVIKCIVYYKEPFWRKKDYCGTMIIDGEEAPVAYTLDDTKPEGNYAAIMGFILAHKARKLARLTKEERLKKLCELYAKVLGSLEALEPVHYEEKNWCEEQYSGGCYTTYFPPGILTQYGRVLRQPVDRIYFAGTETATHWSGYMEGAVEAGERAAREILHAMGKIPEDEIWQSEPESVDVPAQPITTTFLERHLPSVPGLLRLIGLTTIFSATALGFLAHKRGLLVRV
# in vitro = experiment: in vitro
# Source text: The synthesised derivatives were screened for their abilities to cross the BBB using the parallel artificial membrane permeability assay (PAMPA) because this ability is a critical developmental requirement for any drug targeting neurodegenerative disorders or depression.
# normal VERO cells = experiment: MTT cytotoxicity assay; conditions: for IC50: Chlorocebus sabaeus, Vero, read-out: IC50 in normal VERO cells; for Toxicity to normal VERO cells: MTT assay
# AChE [2] = biological target: T3, AChE (Electrophorus electricus, UniProt O42275); experiment: AChE inhibition assay (modified Ellman method, ATCI); format: biochemical; conditions: 15 min pre-incubation; mean ± SE
# MAO-B [3] = biological target: T2, MAO-B; experiment: Reversibility of MAO-B inhibition by dialysis; format: biochemical; conditions: for MAO-B residual activity, dialysed (AD): after 6 h dialysis
# Experimental: Figure 6. […] For recovery experiments, preincubated enzyme mixtures were dialysed as described in the text.
# Inhibition types (reversible or irreversible) were determined by dialysis, as previously described^51,52, but by using 0.06 mM kynuramine and 0.3 mM benzylamine. For the experiment of AChE, 0.5 mM ATCI was used. […] Residual activities were calculated using the measured activities of undialyzed (AU) and dialysed (AD) solutions and the activities of untreated controls (i.e. without inhibitor).
# MAO-B [4] = biological target: T2, MAO-B; experiment: Kinetics of MAO-B inhibition (Lineweaver-Burk and secondary plots); format: biochemical
# Experimental: as §1
# [5] = PAMPA-BBB reported values; cited from earlier work
# AChE [6] = biological target: T3, AChE; experiment: Reversibility of AChE inhibition by dialysis; format: biochemical
# AChE [7] = biological target: T3, AChE; experiment: Kinetics of AChE inhibition (Lineweaver-Burk and secondary plots); format: biochemical
# Experimental: as §1
# [8] = inhibitor ~2 × IC50, before dialysis
# BChE, sequence (P81908 whole entry): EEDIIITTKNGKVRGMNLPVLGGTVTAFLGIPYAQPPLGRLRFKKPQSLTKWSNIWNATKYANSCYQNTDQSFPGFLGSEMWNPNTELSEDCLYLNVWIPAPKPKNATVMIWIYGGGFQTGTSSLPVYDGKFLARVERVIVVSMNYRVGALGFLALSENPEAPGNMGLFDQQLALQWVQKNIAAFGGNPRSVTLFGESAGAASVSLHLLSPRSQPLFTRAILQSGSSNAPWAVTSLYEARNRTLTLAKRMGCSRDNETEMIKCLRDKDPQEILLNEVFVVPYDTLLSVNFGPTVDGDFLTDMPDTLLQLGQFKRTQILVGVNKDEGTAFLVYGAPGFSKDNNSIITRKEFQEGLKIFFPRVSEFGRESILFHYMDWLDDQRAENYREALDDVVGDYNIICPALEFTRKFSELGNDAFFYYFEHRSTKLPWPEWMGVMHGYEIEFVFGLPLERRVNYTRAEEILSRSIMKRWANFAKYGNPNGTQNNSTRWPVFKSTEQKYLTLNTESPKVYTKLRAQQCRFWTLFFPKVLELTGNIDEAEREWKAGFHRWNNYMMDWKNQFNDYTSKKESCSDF
# T3 sequence (O42275 24-633): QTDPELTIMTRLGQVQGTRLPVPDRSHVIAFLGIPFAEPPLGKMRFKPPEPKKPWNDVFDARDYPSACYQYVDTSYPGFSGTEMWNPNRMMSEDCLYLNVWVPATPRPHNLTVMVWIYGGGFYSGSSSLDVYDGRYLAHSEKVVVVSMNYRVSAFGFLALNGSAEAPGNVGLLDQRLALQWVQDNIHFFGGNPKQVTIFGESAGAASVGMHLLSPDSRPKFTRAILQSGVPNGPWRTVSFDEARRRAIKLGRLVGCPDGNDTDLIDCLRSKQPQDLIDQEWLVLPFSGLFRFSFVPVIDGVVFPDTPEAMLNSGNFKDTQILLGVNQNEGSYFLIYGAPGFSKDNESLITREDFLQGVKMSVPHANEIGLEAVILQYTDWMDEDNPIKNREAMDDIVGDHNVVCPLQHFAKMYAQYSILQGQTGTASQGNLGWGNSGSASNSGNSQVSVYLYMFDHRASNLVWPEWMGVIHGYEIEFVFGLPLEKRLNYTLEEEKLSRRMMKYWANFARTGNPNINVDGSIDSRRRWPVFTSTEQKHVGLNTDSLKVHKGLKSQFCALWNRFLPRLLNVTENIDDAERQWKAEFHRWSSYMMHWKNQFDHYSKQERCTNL
compound,measurement,setting,value
O=C(/C=C/c1ccccc1)c1ccc(N2CCOCC2)cc1 [MO1],remaining activity at 10 µM,recombinant human MAO-A,94.2 ± 0.62%
same,ROS levels in H2O2-treated Hela cells,"Hela cells; 40 µg/mL compound, 100 μg/mL H2O2, fluorescent image analysis",significantly lower ROS levels than MO9
same,Colony formation induced by H2O2,Hela cells; Hela cells,markedly reduced
same,remaining activity at 10 µM,BChE,62.9 ± 2.97%
same,IC50,"MAO-B [1]; read-out: IC50 (µM) MAO-B, mean ± SE",0.03 ± 0.062 µM
same,remaining activity at 1 µM,MAO-B [1],38.1 ± 9.5%
same,Papp,in vitro; PAMPA,16.34 ± 0.16 ×10⁻⁶ cm/s
same,BBB permeation,in vitro; PAMPA-BBB,crossed the blood–brain barrier
same,Prediction (BBB permeation class),"in vitro; PAMPA-BBB, class from Pe",CNS+ (CNS+ (high): Pe (10^−6 cm s^−1) > 4.00)
same,IC50,normal VERO cells,195 µg/mL
same,Toxicity to normal VERO cells,normal VERO cells,non-toxic
same,IC50,AChE [2],16.1 ± 2.24 µM
same,Reversibility of MAO-B inhibition,MAO-B [3]; dialysis,reversible inhibitor
same,"MAO-B residual activity, dialysed (AD)",MAO-B [3]; inhibitor ~2 × IC50,77.1%
same,Type of MAO-B inhibition,MAO-B [4],reversible mixed-type inhibitor
"NCCc1ccc(O)c(O)c1 [Dopamine, reference compound]",Bibliography Pe (×10^−6 cm s^−1),[5],0.2 ×10^−6 cm s^−1
same,Prediction (BBB permeation class),in vitro; PAMPA,CNS- (key: CNS+ (high): Pe (10^−6 cm s^−1) > 4.00; CNS- (low): Pe (10^−6 cm s^−1) <2.00; CNS± (uncertain): Pe (10^−6 cm s^−1) from 4.00 to 2.00)
O=C(/C=C/c1ccc(Br)cc1)c1ccc(N2CCOCC2)cc1 [MO9],Reversibility of AChE inhibition,AChE [6]; dialysis,reversible inhibitors
same,"AChE residual activity, dialysed (AD)","AChE [6]; inhibitor ~2 × IC50, after 6 h dialysis",80.7%
same,"AChE residual activity, undialyzed (AU)",AChE [6]; [8],33.8%
same,remaining activity at 10 µM,"recombinant human MAO-A; inhibitor 10 µM, mean ± SE",79.8 ± 1.54%
same,IC50,recombinant human MAO-A; mean ± SE,> 40 µM
same,remaining activity at 10 µM,BChE,70.2 ± 5.5%
same,IC50,MAO-B [1],0.36 ± 0.16 µM
same,remaining activity at 1 µM,MAO-B [1],51.3 ± 2.42%
same,SI = IC50 of MAO-A/IC50 of MAO-B,MAO-B [1],>111.1
same,Type of AChE inhibition,AChE [7],reversibly noncompetitively inhibited; also recorded: non-competitively
same,Papp,in vitro; PAMPA,14.61 ± 0.08 ×10⁻⁶ cm/s
same,BBB permeation,in vitro; PAMPA-BBB,crossed the blood–brain barrier
same,Prediction (BBB permeation class),"in vitro; PAMPA-BBB, class from Pe",CNS+ (CNS+ (high): Pe (10^−6 cm s^−1) > 4.00)
same,IC50,normal VERO cells,188 µg/mL
same,Toxicity to normal VERO cells,normal VERO cells,non-toxic
Cc1ccc(/C=C/C(=O)c2ccc(N3CCOCC3)cc2)cc1 [MO4],remaining activity at 10 µM,"recombinant human MAO-A; inhibitor 10 µM, mean ± SE",70.2 ± 1.24%
same,IC50,recombinant human MAO-A; mean ± SE,25.8 ± 1.58 µM
same,remaining activity at 10 µM,BChE,80.3 ± 6.43%
same,IC50,MAO-B [1],0.33 ± 0.03 µM
same,remaining activity at 1 µM,MAO-B [1],49 ± 1.45%
same,SI = IC50 of MAO-A/IC50 of MAO-B,MAO-B [1],78.2
O=C(/C=C/c1ccc(O)cc1)c1ccc(N2CCOCC2)cc1 [MO2],remaining activity at 10 µM,"recombinant human MAO-A; inhibitor 10 µM, mean ± SE",93.8 ± 1.34%
same,IC50,recombinant human MAO-A; mean ± SE,> 40 µM
same,remaining activity at 10 µM,BChE,63.5 ± 3.3%
same,IC50,MAO-B [1],0.7 ± 0.23 µM
same,remaining activity at 1 µM,MAO-B [1],54.5 ± 5.28%
same,SI = IC50 of MAO-A/IC50 of MAO-B,MAO-B [1],> 57.1
O=C(/C=C/c1ccc([N+](=O)[O-])cc1)c1ccc(N2CCOCC2)cc1 [MO7],IC50,recombinant human MAO-A; mean ± SE,7.1 ± 0.41 µM
same,remaining activity at 10 µM,BChE,70.2 ± 4.76%
same,IC50,MAO-B [1],0.25 ± 0.05 µM
same,remaining activity at 1 µM,MAO-B [1],26.1 ± 5.44%
same,SI = IC50 of MAO-A/IC50 of MAO-B,MAO-B [1],28.4
"NCCNC(=O)c1ccc(Cl)cn1 [Lazabemide, reference compound]","MAO-B residual activity, dialysed (AD)",MAO-B [3]; inhibitor ~2 × IC50,90.0%
same,"MAO-B residual activity, undialyzed (AU)",MAO-B [3]; [8],38.8%
